Source: US10781211B2, “Spirocycle compounds and methods of making and using same” (Lundbeck La Jolla Research Center, Inc., priority 2016, dated 2020)

Assays:
FAAH = FAAH (Mus musculus (Mouse), UniProt O08914); assay: Mouse brain proteomes from inhibitor treated mice (oral gavage, sacrifice 4 h after administration, ABPP analysis), FAAH; format: in vivo; details: 5 mg/kg oral gavage
Experimental: (§1) Preparation of Mouse Brain Proteomes from Inhibitor Treated Mice.
(§2) Inhibitors were administered to wild-type C57Bl/6J by oral gavage in a vehicle, e.g. PEG400/Ethanol/PBS (7/2/1). Each animal was sacrificed 4 h following administration and brain proteomes were prepared and analyzed according to previously established methods (See Niphakis, M. J., et al. (2011) ACS Chem. Neurosci. and Long, J. Z., et al. Nat. Chem. Biol. 5:37-44). Data from this assay is shown in Table 2 (% inhibition at 5 mg/kg).

ABHD6 = ABHD6 (Mus musculus (Mouse), UniProt Q8R2Y0); assay: Mouse brain proteomes from inhibitor treated mice (oral gavage, sacrifice 4 h after administration, ABPP analysis), ABHD6; format: in vivo; details: 5 mg/kg oral gavage
Experimental: as §1, §2

Sequence of ABHD6 (Q8R2Y0 whole entry): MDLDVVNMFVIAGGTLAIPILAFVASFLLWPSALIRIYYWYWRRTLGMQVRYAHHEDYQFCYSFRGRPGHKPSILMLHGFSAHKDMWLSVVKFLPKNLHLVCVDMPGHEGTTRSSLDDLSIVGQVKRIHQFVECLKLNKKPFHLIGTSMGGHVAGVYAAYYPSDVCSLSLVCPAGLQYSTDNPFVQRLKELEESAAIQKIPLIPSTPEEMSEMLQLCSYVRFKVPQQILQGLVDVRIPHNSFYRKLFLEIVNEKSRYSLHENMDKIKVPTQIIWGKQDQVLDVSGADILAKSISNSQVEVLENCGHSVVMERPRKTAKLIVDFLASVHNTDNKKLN
Sequence of FAAH (O08914 whole entry): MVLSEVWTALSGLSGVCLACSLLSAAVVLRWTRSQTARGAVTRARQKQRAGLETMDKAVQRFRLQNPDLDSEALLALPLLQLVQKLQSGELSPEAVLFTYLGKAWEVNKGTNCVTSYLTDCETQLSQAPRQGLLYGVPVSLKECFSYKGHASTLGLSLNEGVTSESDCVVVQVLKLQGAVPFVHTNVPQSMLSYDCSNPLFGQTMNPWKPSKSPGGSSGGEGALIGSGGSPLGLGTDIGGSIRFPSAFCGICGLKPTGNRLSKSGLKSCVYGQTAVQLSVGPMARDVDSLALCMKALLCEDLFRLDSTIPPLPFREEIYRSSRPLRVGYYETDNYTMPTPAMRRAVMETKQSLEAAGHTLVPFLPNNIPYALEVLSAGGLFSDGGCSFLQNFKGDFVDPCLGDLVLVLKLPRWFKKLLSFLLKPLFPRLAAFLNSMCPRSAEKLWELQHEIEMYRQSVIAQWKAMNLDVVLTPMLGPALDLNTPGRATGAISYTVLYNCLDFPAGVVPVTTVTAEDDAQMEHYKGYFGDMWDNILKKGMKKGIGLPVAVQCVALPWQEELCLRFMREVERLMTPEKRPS

Row | FAAH % Inh 5 mg/kg (mouse) (FAAH) | ABHD6 % Inh 5 mg/kg (mouse) (ABHD6) | SMILES
1 | # (# is < 25%) | # (# is < 25%) | O=C(OC(C(F)(F)F)C(F)(F)F)N1CCC2(CCN(Cc3ccc(C(F)(F)F)cc3N3CC4COCC4C3)C2)CC1 (stereo not shown) [Example 26, 1,1,1,3,3,3-Hexafluoropropan-2-yl 2-(2-(tetrahydro-1H-furo[3,4-c]pyrrol-5(3H)-yl)-4-(trifluoromethyl)benzyl)-2,8-diazaspiro[4.5]decane-8-carboxylate]
2 | # (# is < 25%) | # (# is < 25%) | O=C(OC(C(F)(F)F)C(F)(F)F)N1CCC2(CCN(Cc3ccc(C(F)(F)F)cc3N3CCCCC3)C2)CC1 [Example 23, 1,1,1,3,3,3-Hexafluoropropan-2-yl 2-(2-(piperidin-1-yl)-4-(trifluoromethyl)benzyl)-2,8-diazaspiro[4.5]decane-8-carboxylate]
3 | # (# is < 25%) | # (# is < 25%) | O=C(OC(C(F)(F)F)C(F)(F)F)N1CCC2(CCCN2Cc2ccc(Cl)cc2N2CCN(CCF)CC2)CC1 [Example 19, 1,1,1,3,3,3-Hexafluoropropan-2-yl 1-(4-chloro-2-(4-(2-fluoroethyl)piperazin-1-yl)benzyl)-1,8-diazaspiro[4.5]decane-8-carboxylate]
4 | # (# is < 25%) | # (# is < 25%) | O=C(OC(C(F)(F)F)C(F)(F)F)N1CCC2(CCCN2Cc2ccc(Cl)cc2N2CCCCC2)CC1 [Example 74, 1,1,1,3,3,3-Hexafluoropropan-2-yl 1-(4-chloro-2-(piperidin-1-yl)benzyl)-1,8-diazaspiro[4.5]decane-8-carboxylate]
5 | # (# is < 25%) | # (# is < 25%) | O=C(O)C1CCN(Cc2cc(C(F)(F)F)ccc2CN2CCCC23CCN(C(=O)OC(C(F)(F)F)C(F)(F)F)CC3)C1 (stereo not shown) [Example 262]
6 | # (# is < 25%) | # (# is < 25%) | CC1(C)CC2(CCN(C(=O)OC(C(F)(F)F)C(F)(F)F)CC2)CN1Cc1cccc(Cl)c1N1CCOCC1 [Example 54, 1,1,1,3,3,3-Hexafluoropropan-2-yl 2-(3-chloro-2-morpholinobenzyl)-3,3-dimethyl-2,8-diazaspiro[4.5]decane-8-carboxylate]
7 | # (# is < 25%) | # (# is < 25%) | O=C(OC(C(F)(F)F)C(F)(F)F)N1CCC2(CCN(Cc3ccc(C(F)(F)F)cc3N3CCCC3)C2)CC1 [Example 72, 1,1,1,3,3,3-Hexafluoropropan-2-yl 2-(2-(pyrrolidin-1-yl)-4-(trifluoromethyl)benzyl)-2,8-diazaspiro[4.5]decane-8-carboxylate]
8 | # (# is < 25%) | # (# is < 25%) | O=C(O)C1CCN(c2cc(C(F)(F)F)ccc2CN2CCCC23CCN(C(=O)OC(C(F)(F)F)C(F)(F)F)CC3)C1 (stereo not shown) [Example 199]
9 | # (# is < 25%) | # (# is < 25%) | CC1(C)CC2(CCN(C(=O)OC(C(F)(F)F)C(F)(F)F)CC2)CN1Cc1ccc(Cl)cc1N1CCOCC1 [Example 50, 1,1,1,3,3,3-Hexafluoropropan-2-yl 2-(4-chloro-2-morpholinobenzyl)-3,3-dimethyl-2,8-diazaspiro[4.5]decane-8-carboxylate]
10 | # (# is < 25%) | # (# is < 25%) | CCN1CCN(c2cc(C(F)(F)F)ccc2CN2CCCC23CCN(C(=O)OC(C(F)(F)F)C(F)(F)F)CC3)CC1 [Example 87, 1,1,1,3,3,3-Hexafluoropropan-2-yl 1-(2-(4-ethylpiperazin-1-yl)-4-(trifluoromethyl)benzyl)-1,8-diazaspiro[4.5]decane-8-carboxylate]
11 | # (# is < 25%) |  | O=C(OC(C(F)(F)F)C(F)(F)F)N1CCC2(CCN(Cc3cccc(Cl)c3N3CCC(F)CC3)C2)CC1 [Example 65, 1,1,1,3,3,3-Hexafluoropropan-2-yl 2-(3-chloro-2-(4-fluoropiperidin-1-yl)benzyl)-2,8-diazaspiro[4.5]decane-8-carboxylate]

More lines, now with the values behind:

Row | SMILES | FAAH % Inh 5 mg/kg (mouse) (FAAH) | ABHD6 % Inh 5 mg/kg (mouse) (ABHD6)
12 | CS(=O)(=O)N1CCN(c2cc(CN3CCCC34CCN(C(=O)OC(C(F)(F)F)C(F)(F)F)CC4)cc(C(F)(F)F)c2)CC1 [Example 43, 1,1,1,3,3,3-Hexafluoropropan-2-yl 1-(3-(4-(methylsulfonyl)piperazin-1-yl)-5-(trifluoromethyl)benzyl)-1,8-diazaspiro[4.5]decane-8-carboxylate] | # (# is < 25%) | # (# is < 25%)
13 | O=C(OC(C(F)(F)F)C(F)(F)F)N1CCC2(CCCN2Cc2cc(OC3CCS(=O)(=O)CC3)cc(C(F)(F)F)c2)CC1 [Example 176, 1,1,1,3,3,3-Hexafluoropropan-2-yl 1-(3-((1,1-dioxidotetrahydro-2H-thiopyran-4-yl)oxy)-5-(trifluoromethyl)benzyl)-1,8-diazaspiro[4.5]decane-8-carboxylate] | # (# is < 25%) | # (# is < 25%)
14 | O=C(OC(C(F)(F)F)C(F)(F)F)N1CCC2(CCCN2Cc2cc(Oc3cccnc3)cc(C(F)(F)F)c2)CC1 [Example 174, 1,1,1,3,3,3-Hexafluoropropan-2-yl 1-(3-(pyridin-3-yloxy)-5-(trifluoromethyl)benzyl)-1,8-diazaspiro[4.5]decane-8-carboxylate] | # (# is < 25%) | # (# is < 25%)
15 | CS(=O)(=O)C1CN(c2cc(C(F)(F)F)ccc2CN2CCCC23CCN(C(=O)OC(C(F)(F)F)C(F)(F)F)CC3)C1 [Example 268] | # (# is < 25%) | 
16 | O=C(O)C1COCCN1c1cc(CN2CCCC23CCN(C(=O)OC(C(F)(F)F)C(F)(F)F)CC3)cc(C(F)(F)F)c1 (stereo not shown) [Example 200] | # (# is < 25%) | # (# is < 25%)
17 | CC(=O)N1CCN(c2cc(C(F)(F)F)ccc2CN2CCCC23CCN(C(=O)OC(C(F)(F)F)C(F)(F)F)CC3)CC1 [Example 88, 1,1,1,3,3,3-Hexafluoropropan-2-yl 1-(2-(4-acetylpiperazin-1-yl)-4-(trifluoromethyl)benzyl)-1,8-diazaspiro[4.5]decane-8-carboxylate] | # (# is < 25%) | # (# is < 25%)
18 | O=C(O)C1CCN(Cc2cc(CN3CCCC34CCN(C(=O)OC(C(F)(F)F)C(F)(F)F)CC4)cc(OC(F)(F)F)c2)CC1 [Example 269] | # (# is < 25%) | # (# is < 25%)
19 | O=C(OC(C(F)(F)F)C(F)(F)F)N1CCC2(CCCN2Cc2ccc(C(F)(F)F)cc2N2CC3CCC(C2)O3)CC1 [Example 73, 1,1,1,3,3,3-Hexafluoropropan-2-yl 1-(2-(8-oxa-3-azabicyclo[3.2.1]octan-3-yl)-4-(trifluoromethyl)benzyl)-1,8-diazaspiro[4.5]decane-8-carboxylate] | # (# is < 25%) | # (# is < 25%)
20 | O=C(O)C1CCN(Cc2cc(CN3CCCC34CCN(C(=O)OC(C(F)(F)F)C(F)(F)F)CC4)cc(OC(F)(F)F)c2)C1 (stereo not shown) [Example 270] | # (# is < 25%) | # (# is < 25%)
21 | O=C(COc1cc(CN2CCCC23CCN(C(=O)OC(C(F)(F)F)C(F)(F)F)CC3)cc(C(F)(F)F)c1)N1CCCC1 [Example 168, 1,1,1,3,3,3-Hexafluoropropan-2-yl 1-(3-(2-oxo-2-(pyrrolidin-1-yl)ethoxy)-5-(trifluoromethyl)benzyl)-1,8-diazaspiro[4.5]decane-8-carboxylate] | # (# is < 25%) | # (# is < 25%)
22 | CC1(C(=O)O)CCN(c2cc(C(F)(F)F)ccc2CN2CCCC23CCN(C(=O)OC(C(F)(F)F)C(F)(F)F)CC3)C1 (stereo not shown) [Example 230] | # (# is < 25%) | # (# is < 25%)
23 | O=C(OC(C(F)(F)F)C(F)(F)F)N1CCC2(CCCN2Cc2ccc(C(F)(F)F)cc2N2CCN(CCF)CC2)CC1 [Example 20, 1,1,1,3,3,3-Hexafluoropropan-2-yl 1-(2-(4-(2-fluoroethyl)piperazin-1-yl)-4-(trifluoromethyl)benzyl)-1,8-diazaspiro[4.5]decane-8-carboxylate] | # (# is < 25%) | # (# is < 25%)
24 | O=C(O)C1CCN(Cc2cc(CN3CCCC34CCN(C(=O)OC(C(F)(F)F)C(F)(F)F)CC4)cc(C(F)(F)F)c2)C1 (stereo not shown) [Example 253] | # (# is < 25%) | # (# is < 25%)
25 | CS(=O)(=O)C1CCN(c2cc(C(F)(F)F)ccc2CN2CCCC23CCN(C(=O)OC(C(F)(F)F)C(F)(F)F)CC3)C1 (stereo not shown) [Example 193, 1,1,1,3,3,3-Hexafluoropropan-2-yl 1-(2-(3-(methylsulfonyl)pyrrolidin-1-yl)-4-(trifluoromethyl)benzyl)-1,8-diazaspiro[4.5]decane-8-carboxylate] | # (# is < 25%) | # (# is < 25%)
26 | O=C(OC(C(F)(F)F)C(F)(F)F)N1CCC2(CCCN2Cc2cc(OC3CCOCC3)cc(C(F)(F)F)c2)CC1 [Example 170, 1,1,1,3,3,3-Hexafluoropropan-2-yl 1-(3-(tetrahydro-2H-pyran-4-yloxy)-5-(trifluoromethyl)benzyl)-1,8-diazaspiro[4.5]decane-8-carboxylate] | # (# is < 25%) | # (# is < 25%)
27 | O=C(OC(C(F)(F)F)C(F)(F)F)N1CCC2(CCCN2Cc2ccc(C(F)(F)F)cc2Oc2cccnc2)CC1 [Example 173, 1,1,1,3,3,3-Hexafluoropropan-2-yl 1-(2-(pyridin-3-yloxy)-4-(trifluoromethyl)benzyl)-1,8-diazaspiro[4.5]decane-8-carboxylate] | # (# is < 25%) | # (# is < 25%)
